Data set [1] can be described thus: plasma pharmacokinetics in mice. Type of data set: in vivo. As to conditions: BALB/c mice, 1 nmol i.v.; plasma fluorescence 5-1440 min; two-phase exponential decay fit; 4 mice per point. Here is the method:
Figure S13. Plasma pharmacokinetics of 5a-IRDye in mice.
Eight BALB/c mice were divided in 2 groups (4 mice/group) and injected i.v. with 5a-IRDye (1 nmol). Their blood was then collected into heparinized tubes at 5, 30, 120, 240, and 1440 min (group 1) or after 15, 60, 180, 360, and 1440 min (group 2). Plasma samples (20 µl) were diluted with PBS (50 µl, final volume) and transferred to a black 96-well microtiter plate. The amount of fluorescence in each sample was then quantified using an Infinite 200Pro reader plate (TECAN, excitation wavelength: 766 nm; emission wavelength: 810 nm; excitation bandwidth: 9 nm; emission bandwidth: 20 nm; gain: 180 optimal (100%) and number of flashes:
25). (Dots, mean ± SE, 4 mice). Plasma half-life of 5a-IRdye was calculated using a two-phase exponential decay equation (GraphPad Prism software, San Diego California).
Chromogranin A binds to avb6-integrin and promotes wound healing in mice. Cell Mol […]
(1 picture or pasted object on this page, not shown here)

The test system of data set [2] is 5M7101 pancreatic adenocarcinoma cells (αvβ6+ and αvβ8-). The data set can be described thus: binding of peptide-IRDye conjugates to cultured 5M7101 cells. Type of data set: cell-based, murine. Conditions: 0.32-200 nM, 1 h, 37 °C; bound NIR fluorescence. Here is the method:
(§1) To assess the binding of peptide-IRDye conjugates to cells various amounts of conjugates (range 0.32-200 nM) were added to cultured cells and left to incubate for 1 h at 37 °C. After three washings, the cells were fixed and analyzed by scanning the plate with the Odyssey CLx.
(§2) A control conjugate with a cysteine in place of the peptide was also prepared in parallel. The identity of the purified products, called 5a-IRDye, 2a-IRDye, and Cys-IRDye, was confirmed by mass spectrometry analysis (Table S1). In addition, the purity and identity of 5a-IRDye was monitored by liquid chromatography–mass spectrometry (LC-MS). […]
(§3) that the product consist of a single peak at 230 and 735 nm with the expected molecular weight (purity >95%) (Figure S3A).
(§4) The simplified molecular-input line-entry system (SMILES) of 5a-, 2a-, Cys- and 5a-Scr- […]
(§5) The concentration of each conjugate was quantified by spectrophotometric analysis at 774 nm (molar absorption coefficient, 240,000 M-1, cm-1) (Figure S3B). […]
(§6) The binding of peptide-IRDye conjugates to BxPC-3, 5M7101, and HUVECs cells was analyzed as follows. […]
(§7) chloride and 1% BSA (binding buffer) for 5 min. […] Binding of conjugates to cells was quantified by scanning the plate (filled with PBS, 100 µl/well) with the Odyssey CLx (LI-COR) using the above settings, except that the scan focus offset and scan intensity were set to 4 and 8.5, respectively. […]

Data set [3] concerns human umbilical vein endothelial cells (HUVECs) (αvβ6- and αvβ8-). The data set can be described thus: binding of peptide-IRDye conjugates to cultured HUVECs. Type of data set: cell-based. Conditions: 0.32-200 nM, 1 h, 37 °C; bound NIR fluorescence. The procedure: as §1, §2, §3, §4, §5, §6, §7

As for `CC[C@H](C)[C@H](NC(=O)[C@H](CCCNC(=N)N)NC(=O)[C@H](CC(C)C)NC(=O)[C@H](CC(=O)O)NC(=O)CNC(=O)[C@H](CCCNC(=N)N)NC(=O)[C@H](CC(C)C)NC(=O)[C@@H](NC(=O)[C@H](CCC(=O)O)NC(=O)[C@H](Cc1ccccc1)NC(=O)[C@@H](N)CSC1CC(=O)N(CCNC(=O)CCCCCN2C(=CC=C3CCCC(C=CC4=[N+](CCCCS(=O)(=O)[O-])c5ccc(S(=O)(=O)O)cc5C4(C)C)=C3Oc3ccc(S(=O)(=O)O)cc3)C(C)(C)c3cc(S(=O)(=O)O)ccc32)C1=O)[C@@H](C)O)C(=O)N[C@@H](CC(C)C)C(=O)N[C@@H](CO)C(=O)N[C@H](C(=O)N[C@@H](CC(C)C)C(=O)N[C@@H](CCCNC(=N)N)C(=O)N[C@H]1Cc2cn(nn2)CCCC[C@@H](C(=O)N[C@@H](CCCCN)C(=O)N[C@@H](CCC(=O)O)C(=O)N[C@@H](CC(C)C)C(=O)N[C@@H](CCC(N)=O)C(=O)N[C@@H](CC(=O)O)C(N)=O)NC(=O)[C@H](CC(C)C)NC(=O)[C@H](CC(N)=O)NC(=O)[C@H](CCC(N)=O)NC1=O)[C@@H](C)CC` (stereo partly drawn) [5a-IRDye], the plasma half-life in data set [1] was ~ 8 min.

With `CC1(C)C(/C=C/C2=C(Oc3ccc(S(=O)(=O)O)cc3)C(=C\C=C3/N(CCCCCC(=O)NCCN4C(=O)CC(SC[C@H](N)C(=O)O)C4=O)c4ccc(S(=O)(=O)O)cc4C3(C)C)/CCC2)=[N+](CCCCS(=O)(=O)O)c2ccc(S(=O)(=O)[O-])cc21` (stereo partly drawn) [Cys-IRDye], in data set [2], the “binding of conjugate to 5M7101 cells” value is on record as “little or no binding”. The “binding of conjugate to HUVECs” value in data set [3] is listed as “little or no binding”.

The values above are taken from PMC9760430, “A stapled chromogranin A-derived peptide homes in on tumors that express αvβ6 or αvβ8 integrins” (International Journal of Biological Sciences, 2023).
